Laboratory results taken from paper PMC7116364 (Science translational medicine, 2020).
Values joined by “and” are separate entries in the source; they are usually repeats but may differ in a detail not shown here. Equal values may be shown once. Read-outs that look alike come from different tables or passages of the source.

What was measured:
[1] = test system: cleavage of recombinant human prothrombin by saw-scaled viper venom; format: biochemical, Echis; conditions: lower dose (150 µM)
[2] = test system: venom SVMPs from six saw-scaled vipers; format: biochemical; conditions: read-out: IC50, neutralization of venom SVMP activity
[3] = test system: procoagulant activity of six Echis venoms; format: biochemical; conditions: for IC50: read-out: IC50, neutralization of venom-induced plasma clotting
[4] = test system: venom-induced plasma clotting (Echis venoms, calcium-independent); format: biochemical; conditions: for IC50: read-out: IC50, venom-induced plasma clotting in the absence of calcium
[5] = test system: Indian E. carinatus venom; format: biochemical; conditions: read-out: IC50, plasma assay
[6] = test system: E. ocellatus venom (Nigeria); experiment: coincubation model of envenoming; design: species or system male CD1 mice; conditions: mouse, in vivo, iv
[7] = test system: E. ocellatus venom; design: species or system male CD-1 mice; conditions: mouse, in vivo, ip
[8] = test system: E. carinatus (India) venom; experiment: coincubation model of envenoming; design: species or system male CD-1 mice; conditions: mouse, in vivo, iv
[9] = test system: E. pyramidum venom; experiment: coincubation model of envenoming; design: species or system male CD-1 mice; conditions: mouse, in vivo, iv
[10] = test system: E. carinatus (India) venom; design: species or system male CD-1 mice; conditions: mouse, in vivo, ip
[11] = test system: E. ocellatus venom; experiment: challenge and treat model using oral DMPS, E. ocellatus; design: species or system male CD-1 mice; conditions: mouse, in vivo
[12] = drug-only / antivenom-only control groups; conditions: 600 µg DMPS orally, 24 h
[13] = rabbits and dogs, intravenous or oral administration for 10-26 weeks; cited from earlier work
[14] = test system: E. ocellatus venom; experiment: neutralization of local hemorrhage; design: species or system male CD-1 mice; conditions: mouse, in vivo
[15] = rats and rabbits, first 6 h, after oral dosing; cited from earlier work
[16] = humans, cited from earlier work
[17] = test system: E. pyramidum venom; design: species or system male CD-1 mice; conditions: mouse, in vivo, ip
[18] = test system: E. ocellatus, E. pyramidum and E. carinatus venoms; design: species or system male CD-1 mice; conditions: mouse, in vivo, ip
[19] = test system: venoms of E. pyramidum and E. carinatus; design: species or system mice; conditions: mouse, in vivo, iv
[20] = test system: E. ocellatus venom; design: species or system mice; conditions: mouse, in vivo, iv
[21] = test system: PLA2 activity of fractionated E. ocellatus venom; format: biochemical
[22] = test system: serine protease activity of fractionated E. ocellatus venom; format: biochemical

For `O=C(O)CN(CCN(CC(=O)O)CC(=O)O)CC(=O)O` [EDTA], the “protection of prothrombin against cleavage, comparison” value [1] was “outperformed DMPS and DMSA”, the IC50 [2] was 2.25 to 4.43 µM and the “inhibition of venom activity in the plasma assay” value [3] was “did not extensively inhibit venom activity”. For the same compound, the “inhibition of venom-induced plasma clotting in the absence of calcium” value ([4]; no calcium) was “effective at inhibiting venom-induced plasma clotting”, the IC50 [4] was 4.89 to 253 µM and the IC50 [5] was 2.18 µM.
In the case of `O=C(O)[C@@H](S)[C@@H](S)C(=O)O` [DMSA, dimercaptosuccinic acid], the IC50 [2] is reported as 19.3 to 35.1 µM, the IC50 [3] is reported as 18.8 to 147 µM and the “plasma thrombin-antithrombin (TAT) concentrations” value (shortened to “plasma thrombin-antithrombin”) [6] is reported as 300 to 666 ng/mL. For the same compound, the survival [6] was “three of the five experimental animals survived”.
With `OCC(S)CS` (stereo not shown) [dimercaprol] the “protection of prothrombin against cleavage, comparison” value [1] was “outperformed DMPS and DMSA”, the IC50 [2] was 0.04 to 0.18 µM and the “survival to the end of the experiment (24 h)” value [7] was “two experimental animals also survived”. For the same compound, the time of death [7] was 111 min and 125 min and 150 min, the IC50 [3] was 0.14 to 1.36 µM and the IC50 [4] was 0.49 to 14 µM. The protection against lethality [8] was “complete protection”, the protection against lethality [9] was “two deaths” and the “plasma thrombin-antithrombin” value [6] was 40 to 50 ng/mL. For the same compound, the survival [6] was “survived until the end of the experiment (6 h)”.
For `O=S(=O)(O)CC(S)CS` (stereo not shown) [DMPS, 2,3-dimercapto-1-propanesulfonic acid], the IC50 [2] was 1.64 to 3.4 µM, the “prolonged animal survival compared to the venom-only controls” value [7] was ~ 17 h and the “survival to the end of the experiment (24 h)” value [7] was “two of the five experimental animals survived”. For the same compound, the time of death [7] was 756 to 1440 min and 756 min, the “effect on lethality compared with the venom-only control” value [10] was “slight delay in lethality” and the “echinocytes in blood films” value [11] was “markedly reduced the number of echinocytes”. For the same compound, the “prolonged animal survival compared to the venom-only controls” value [11] was ~ 10 h, the “survival at the end of the experiment (24 h)” value [11] was 2 of 5 and the “signs of toxicity (survival, behavioral and post-mortem observations)” value [12] was “did not display any signs of toxicity in mice”. The “changes in the concentrations of iron or calcium” value [13] was “no significant changes in the concentrations of iron or calcium”, the IC50 [3] was 1.18 to 27.7 µM and the IC50 [4] was 2.18 to 7.55 µM. The “hemorrhagic lesion size (average)” value [14] was 1.43 mm^2, the “fraction excreted in the urine / eliminated within 6 h” value [15] was 85-89% and > 85% and the “time to peak plasma concentrations” value ([16]; after ingestion) was 3 to 4 h. The “time at which the drug can be detected in the plasma” value ([16]; after oral administration) was 30 to 45 min, the clinical half-life [16] was ~ 20 h and the protection against lethality [8] was “two deaths”. For the same compound, the time of death [8] was 89 min and 110 min, the protection against lethality [9] was “complete protection” and the “survival for the duration of the experiment (24 h)” value [17] was “two survived for the duration of the experiment (24 h)”. The “TAT concentrations, animals not protected by DMPS” value [18] was greater than 400 ng/mL, the “TAT concentrations, animals that survived for the duration of the experiment (average)” value [18] was ~ 200 ng/ml and the RBC morphology [19] was “some protection”. The RBC morphology [20] was “fully rescued normal RBC morphology”, the “inhibition of PLA2 activity” value [21] was “unable to inhibit” and the “plasma thrombin-antithrombin” value [6] was 170 to 252 ng/mL. The survival [6] was “survived until the end of the experiment (6 h)” and the “inhibition of serine protease activity” value [22] was “unable to inhibit”.
